Article PMC8452302 (CPT: Pharmacometrics & Systems Pharmacology, 2021)

Experiments:
OATP2B1 = molecular target: T1, OATP2B1 (Homo sapiens, UniProt O94956); test: OATP2B1-mediated transport of substrate; format: in vitro ADME; conditions: Estimated; optimized to recover ~40% Fa
T1 sequence (O94956 1-709): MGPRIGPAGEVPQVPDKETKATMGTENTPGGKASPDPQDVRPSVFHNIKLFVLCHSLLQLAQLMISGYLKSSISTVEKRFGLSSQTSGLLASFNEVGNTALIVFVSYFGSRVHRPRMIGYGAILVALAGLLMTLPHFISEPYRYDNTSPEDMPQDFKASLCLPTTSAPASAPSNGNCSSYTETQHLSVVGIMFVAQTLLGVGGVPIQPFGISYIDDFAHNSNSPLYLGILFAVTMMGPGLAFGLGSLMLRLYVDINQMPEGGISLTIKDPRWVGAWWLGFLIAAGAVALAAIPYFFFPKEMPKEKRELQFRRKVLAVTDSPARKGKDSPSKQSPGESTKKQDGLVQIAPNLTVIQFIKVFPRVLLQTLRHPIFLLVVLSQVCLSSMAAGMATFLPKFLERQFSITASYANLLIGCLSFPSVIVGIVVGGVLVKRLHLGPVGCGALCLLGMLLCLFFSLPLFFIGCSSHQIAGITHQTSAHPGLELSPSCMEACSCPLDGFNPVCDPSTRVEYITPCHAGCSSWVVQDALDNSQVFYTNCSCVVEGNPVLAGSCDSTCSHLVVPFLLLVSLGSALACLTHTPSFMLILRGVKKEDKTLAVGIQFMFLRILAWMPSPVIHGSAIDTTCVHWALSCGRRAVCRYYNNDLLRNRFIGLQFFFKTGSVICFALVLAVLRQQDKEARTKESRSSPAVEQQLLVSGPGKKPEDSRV

BCRP [1] = molecular target: T2, BCRP (Homo sapiens, UniProt Q9UNQ0); test: BCRP-mediated transport of substrate; format: in vitro ADME; conditions: Estimated; optimized to recover ~40% Fa
T2 sequence (Q9UNQ0 1-655): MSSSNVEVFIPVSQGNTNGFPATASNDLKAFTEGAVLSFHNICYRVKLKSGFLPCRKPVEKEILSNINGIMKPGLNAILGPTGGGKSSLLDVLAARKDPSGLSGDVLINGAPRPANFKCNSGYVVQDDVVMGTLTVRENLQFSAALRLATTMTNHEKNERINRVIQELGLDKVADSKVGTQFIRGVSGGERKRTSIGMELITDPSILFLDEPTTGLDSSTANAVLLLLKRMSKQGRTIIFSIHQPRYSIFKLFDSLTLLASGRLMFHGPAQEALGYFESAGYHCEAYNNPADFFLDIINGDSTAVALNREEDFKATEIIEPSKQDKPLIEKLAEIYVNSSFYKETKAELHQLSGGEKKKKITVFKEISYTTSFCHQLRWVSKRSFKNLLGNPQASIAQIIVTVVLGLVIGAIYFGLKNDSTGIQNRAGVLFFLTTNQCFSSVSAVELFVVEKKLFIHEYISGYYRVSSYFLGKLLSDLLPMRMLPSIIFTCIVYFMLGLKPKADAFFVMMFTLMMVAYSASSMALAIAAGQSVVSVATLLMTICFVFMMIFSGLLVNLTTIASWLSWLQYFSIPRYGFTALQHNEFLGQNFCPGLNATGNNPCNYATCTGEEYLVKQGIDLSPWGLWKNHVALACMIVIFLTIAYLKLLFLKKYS

OATP1B3 = molecular target: T3, OATP1B3 (Homo sapiens, UniProt Q9NPD5); test: OATP1B3-mediated transport of substrate; format: in vitro ADME; conditions: OATP1B3-transfected HEK293 cells
T3 sequence (Q9NPD5 1-702): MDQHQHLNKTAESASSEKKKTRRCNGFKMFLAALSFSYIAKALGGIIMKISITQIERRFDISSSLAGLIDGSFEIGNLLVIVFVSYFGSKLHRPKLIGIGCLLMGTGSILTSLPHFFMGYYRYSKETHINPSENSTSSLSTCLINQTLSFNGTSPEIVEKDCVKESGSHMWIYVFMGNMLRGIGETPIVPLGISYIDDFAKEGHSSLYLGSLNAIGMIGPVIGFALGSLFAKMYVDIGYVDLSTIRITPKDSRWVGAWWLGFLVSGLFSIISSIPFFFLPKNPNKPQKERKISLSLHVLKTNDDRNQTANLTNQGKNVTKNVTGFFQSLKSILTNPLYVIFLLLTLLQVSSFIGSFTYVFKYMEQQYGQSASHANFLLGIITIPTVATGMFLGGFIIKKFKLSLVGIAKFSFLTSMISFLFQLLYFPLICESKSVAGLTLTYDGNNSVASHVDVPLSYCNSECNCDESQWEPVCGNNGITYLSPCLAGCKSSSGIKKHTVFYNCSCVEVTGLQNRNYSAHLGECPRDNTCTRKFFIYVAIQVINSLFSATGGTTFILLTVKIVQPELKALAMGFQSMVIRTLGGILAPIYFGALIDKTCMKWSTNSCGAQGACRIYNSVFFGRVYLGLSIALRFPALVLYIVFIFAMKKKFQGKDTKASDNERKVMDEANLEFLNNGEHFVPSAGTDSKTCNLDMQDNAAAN

[2] = cited from earlier work
BCRP [3] = molecular target: T2, BCRP; conditions: read-out: BCRP Km; membrane vesicle assay; cited from earlier work
[4] = Physicochemical PBPK model inputs
[5] = test system: OATP1B1, OATP1B3, and OATP2B1; test: SLC-phenotyping of hepatic uptake; format: in vitro ADME, human; conditions: SLC-phenotyping methodology
Caco-2 permeability = format: in vitro ADME; conditions: human
[6] = Passive transport clearance; format: in vitro ADME, human; conditions: Measured using SCHH

Structure (SMILES): CC(C)c1nc(N(C)S(C)(=O)=O)nc(-c2ccc(F)cc2)c1/C=C/[C@@H](O)C[C@@H](O)CC(=O)O [Rosuvastatin, rosuvastatin]
- Intestinal OATP2B1 CLint,T (OATP2B1): 0.002 µL/min
- Intestinal BCRP Jmax (BCRP [1]): 380 pmol/min
- Km (OATP1B3): 28.3 µM
- contribution of OAT3-mediated active secretion to renal clearance [2]: greater than 90%
- glomerular filtration rate [2]: ~ 0.22 ml/min/kg
- renal clearance [2]: ~ 2.6 ml/min/kg
- oral bioavailability ([2]; human, in vivo, po): ~ 20%
- Km (BCRP [3]): 10.8 µM
- pKa [4]: 4.33
- share of active hepatic uptake driven by OATP1B1, OATP1B3, and OATP2B1 [5]: ~ 95%
- Papp (Caco-2 permeability): 1.2 ×10⁻⁶ cm/s
- CLPD basal (hepatic and renal) [6]: 1.1 µl/min/10^6
